The NIST ThermoML archive (doi:10.1016/j.jct.2016.09.013)
Numbers after ± are expanded uncertainties.

Settings: Liquid; for viscosity: Concentric cylinders viscometry

Q: Which viscosity (293.15 K, 101.33 kPa) does the source give for `CCCCn1cc[n+](C)c1.COP(=O)([O-])OC` [1-butyl-3-methyl-1H-imidazolium dimethylphosphate] here?
A: 760.4 ± 29 mPa·s

Q: And the mass density (293.15 K, 101.33 kPa, Vibrating tube method)?
A: 1167.3 ± 1.5 kg/m3

Q: What about the viscosity (303.15 K, 101.33 kPa) of the same compound?
A: 369.3 ± 11 mPa·s

Q: What about the mass density (303.15 K, 101.33 kPa, Vibrating tube method) of the same compound?
A: 1160.2 ± 1.5 kg/m3

Q: And the mass density (311.4 K, 10000 kPa, Bellows volumetry)?
A: 1159.3 ± 1.8 kg/m3

Q: And the mass density (311.4 K, 20000 kPa, Bellows volumetry)?
A: 1163.7 ± 1.8 kg/m3

Q: And the mass density (311.4 K, 30000 kPa, Bellows volumetry)?
A: 1168.1 ± 1.8 kg/m3

Q: And the mass density (311.4 K, 40000 kPa, Bellows volumetry)?
A: 1172.2 ± 1.8 kg/m3

Q: And the mass density (311.4 K, 50000 kPa, Bellows volumetry)?
A: 1176.4 ± 1.8 kg/m3

Q: What about the mass density (311.4 K, 60000 kPa, Bellows volumetry) of the same compound?
A: 1180.3 ± 1.8 kg/m3

Q: And the mass density (311.4 K, 70000 kPa, Bellows volumetry)?
A: 1183.9 ± 1.8 kg/m3

Q: What about the mass density (311.4 K, 80000 kPa, Bellows volumetry) of the same compound?
A: 1187.7 ± 1.8 kg/m3

Q: What about the mass density (311.4 K, 90000 kPa, Bellows volumetry) of the same compound?
A: 1191.3 ± 1.8 kg/m3

Q: What about the mass density (311.4 K, 100000 kPa, Bellows volumetry) of the same compound?
A: 1194.7 ± 1.8 kg/m3

Q: What about the mass density (311.4 K, 110000 kPa, Bellows volumetry) of the same compound?
A: 1198.1 ± 1.8 kg/m3

Q: What about the mass density (311.4 K, 120000 kPa, Bellows volumetry) of the same compound?
A: 1201.4 ± 1.8 kg/m3

Q: And the mass density (311.4 K, 130000 kPa, Bellows volumetry)?
A: 1204.7 ± 1.9 kg/m3

Q: And the mass density (311.4 K, 140000 kPa, Bellows volumetry)?
A: 1207.7 ± 1.9 kg/m3

Q: And the mass density (311.4 K, 150000 kPa, Bellows volumetry)?
A: 1210.8 ± 1.9 kg/m3

Q: And the mass density (311.4 K, 160000 kPa, Bellows volumetry)?
A: 1213.7 ± 1.9 kg/m3

Q: What about the mass density (311.4 K, 170000 kPa, Bellows volumetry) of the same compound?
A: 1216.7 ± 1.9 kg/m3

Q: What about the mass density (311.4 K, 180000 kPa, Bellows volumetry) of the same compound?
A: 1219.6 ± 1.9 kg/m3

Q: What about the mass density (311.4 K, 190000 kPa, Bellows volumetry) of the same compound?
A: 1222.5 ± 1.9 kg/m3

Q: And the mass density (311.4 K, 200000 kPa, Bellows volumetry)?
A: 1225.3 ± 1.9 kg/m3

Q: What about the viscosity (313.15 K, 101.33 kPa) of the same compound?
A: 198.8 ± 4.2 mPa·s

Q: And the mass density (313.15 K, 101.33 kPa, Vibrating tube method)?
A: 1153.4 ± 1.5 kg/m3

Q: And the viscosity (323.15 K, 101.33 kPa)?
A: 116.4 ± 1.9 mPa·s

Q: And the mass density (323.15 K, 101.33 kPa, Vibrating tube method)?
A: 1146.8 ± 1.5 kg/m3

Q: And the mass density (331.3 K, 10000 kPa, Bellows volumetry)?
A: 1146.1 ± 1.8 kg/m3

Q: What about the mass density (331.3 K, 20000 kPa, Bellows volumetry) of the same compound?
A: 1150.8 ± 1.8 kg/m3

Q: And the mass density (331.3 K, 30000 kPa, Bellows volumetry)?
A: 1155.4 ± 1.8 kg/m3

Q: And the mass density (331.3 K, 40000 kPa, Bellows volumetry)?
A: 1159.8 ± 1.8 kg/m3

Q: What about the mass density (331.3 K, 50000 kPa, Bellows volumetry) of the same compound?
A: 1164.2 ± 1.8 kg/m3

Q: What about the mass density (331.3 K, 60000 kPa, Bellows volumetry) of the same compound?
A: 1168.3 ± 1.8 kg/m3

Q: And the mass density (331.3 K, 70000 kPa, Bellows volumetry)?
A: 1172.1 ± 1.8 kg/m3

Q: What about the mass density (331.3 K, 80000 kPa, Bellows volumetry) of the same compound?
A: 1176 ± 1.8 kg/m3

Q: What about the mass density (331.3 K, 90000 kPa, Bellows volumetry) of the same compound?
A: 1179.6 ± 1.8 kg/m3

Q: What about the mass density (331.3 K, 100000 kPa, Bellows volumetry) of the same compound?
A: 1183.1 ± 1.8 kg/m3

Q: And the mass density (331.3 K, 110000 kPa, Bellows volumetry)?
A: 1186.6 ± 1.8 kg/m3

Q: And the mass density (331.3 K, 120000 kPa, Bellows volumetry)?
A: 1190.1 ± 1.8 kg/m3

Q: What about the mass density (331.3 K, 130000 kPa, Bellows volumetry) of the same compound?
A: 1193.4 ± 1.8 kg/m3

Q: What about the mass density (331.3 K, 140000 kPa, Bellows volumetry) of the same compound?
A: 1196.6 ± 1.8 kg/m3

Q: And the mass density (331.3 K, 150000 kPa, Bellows volumetry)?
A: 1199.8 ± 1.8 kg/m3

Q: And the mass density (331.3 K, 160000 kPa, Bellows volumetry)?
A: 1202.9 ± 1.8 kg/m3

Q: And the mass density (331.3 K, 170000 kPa, Bellows volumetry)?
A: 1205.9 ± 1.9 kg/m3

Q: And the mass density (331.3 K, 180000 kPa, Bellows volumetry)?
A: 1208.9 ± 1.9 kg/m3

Q: What about the mass density (331.3 K, 190000 kPa, Bellows volumetry) of the same compound?
A: 1212.6 ± 1.9 kg/m3

Q: And the mass density (331.3 K, 200000 kPa, Bellows volumetry)?
A: 1214.8 ± 1.9 kg/m3

Q: What about the viscosity (333.15 K, 101.33 kPa) of the same compound?
A: 72.97 ± 0.98 mPa·s

Q: What about the mass density (333.15 K, 101.33 kPa, Vibrating tube method) of the same compound?
A: 1140.3 ± 1.4 kg/m3

Q: And the viscosity (343.15 K, 101.33 kPa)?
A: 48.45 ± 0.62 mPa·s

Q: What about the mass density (343.15 K, 101.33 kPa, Vibrating tube method) of the same compound?
A: 1133.7 ± 1.4 kg/m3

Q: What about the mass density (351.6 K, 10000 kPa, Bellows volumetry) of the same compound?
A: 1133.7 ± 1.8 kg/m3

Q: And the mass density (351.6 K, 20000 kPa, Bellows volumetry)?
A: 1138.4 ± 1.8 kg/m3

Q: And the mass density (351.6 K, 30000 kPa, Bellows volumetry)?
A: 1143.3 ± 1.8 kg/m3

Q: And the mass density (351.6 K, 40000 kPa, Bellows volumetry)?
A: 1147.9 ± 1.8 kg/m3

Q: And the mass density (351.6 K, 50000 kPa, Bellows volumetry)?
A: 1152.4 ± 1.8 kg/m3

Q: What about the mass density (351.6 K, 60000 kPa, Bellows volumetry) of the same compound?
A: 1156.7 ± 1.8 kg/m3

Q: What about the mass density (351.6 K, 70000 kPa, Bellows volumetry) of the same compound?
A: 1160.9 ± 1.8 kg/m3

Q: What about the mass density (351.6 K, 80000 kPa, Bellows volumetry) of the same compound?
A: 1164.9 ± 1.8 kg/m3

Q: What about the mass density (351.6 K, 90000 kPa, Bellows volumetry) of the same compound?
A: 1168.6 ± 1.8 kg/m3

Q: What about the mass density (351.6 K, 100000 kPa, Bellows volumetry) of the same compound?
A: 1172.3 ± 1.8 kg/m3

Q: And the mass density (351.6 K, 110000 kPa, Bellows volumetry)?
A: 1175.9 ± 1.8 kg/m3

Q: What about the mass density (351.6 K, 120000 kPa, Bellows volumetry) of the same compound?
A: 1179.7 ± 1.8 kg/m3

Q: What about the mass density (351.6 K, 130000 kPa, Bellows volumetry) of the same compound?
A: 1183.1 ± 1.8 kg/m3

Q: And the mass density (351.6 K, 140000 kPa, Bellows volumetry)?
A: 1186.4 ± 1.8 kg/m3

Q: And the mass density (351.6 K, 150000 kPa, Bellows volumetry)?
A: 1189.6 ± 1.8 kg/m3

Q: And the mass density (351.6 K, 160000 kPa, Bellows volumetry)?
A: 1192.8 ± 1.8 kg/m3

Q: What about the mass density (351.6 K, 170000 kPa, Bellows volumetry) of the same compound?
A: 1196.1 ± 1.8 kg/m3

Q: And the mass density (351.6 K, 180000 kPa, Bellows volumetry)?
A: 1199.1 ± 1.8 kg/m3

Q: What about the mass density (351.6 K, 190000 kPa, Bellows volumetry) of the same compound?
A: 1202.1 ± 1.8 kg/m3

Q: And the mass density (351.6 K, 200000 kPa, Bellows volumetry)?
A: 1205.1 ± 1.9 kg/m3

Q: And the viscosity (353.15 K, 101.33 kPa)?
A: 33.76 ± 0.43 mPa·s

Q: And the mass density (353.15 K, 101.33 kPa, Vibrating tube method)?
A: 1127.2 ± 1.4 kg/m3

Q: What about the viscosity (363.15 K, 101.33 kPa) of the same compound?
A: 24.48 ± 0.31 mPa·s

Q: What about the mass density (363.15 K, 101.33 kPa, Vibrating tube method) of the same compound?
A: 1120.7 ± 1.4 kg/m3

Q: What about the mass density (371.6 K, 10000 kPa, Bellows volumetry) of the same compound?
A: 1120.8 ± 1.8 kg/m3

Q: And the mass density (371.6 K, 20000 kPa, Bellows volumetry)?
A: 1126.1 ± 1.8 kg/m3

Q: What about the mass density (371.6 K, 30000 kPa, Bellows volumetry) of the same compound?
A: 1131.3 ± 1.8 kg/m3

Q: What about the mass density (371.6 K, 40000 kPa, Bellows volumetry) of the same compound?
A: 1136.2 ± 1.8 kg/m3

Q: What about the mass density (371.6 K, 50000 kPa, Bellows volumetry) of the same compound?
A: 1140.9 ± 1.8 kg/m3

Q: And the mass density (371.6 K, 60000 kPa, Bellows volumetry)?
A: 1145.4 ± 1.8 kg/m3

Q: And the mass density (371.6 K, 70000 kPa, Bellows volumetry)?
A: 1149.7 ± 1.8 kg/m3

Q: What about the mass density (371.6 K, 80000 kPa, Bellows volumetry) of the same compound?
A: 1153.9 ± 1.8 kg/m3

Q: What about the mass density (371.6 K, 90000 kPa, Bellows volumetry) of the same compound?
A: 1157.9 ± 1.8 kg/m3

Q: And the mass density (371.6 K, 100000 kPa, Bellows volumetry)?
A: 1161.8 ± 1.8 kg/m3

Q: What about the mass density (371.6 K, 110000 kPa, Bellows volumetry) of the same compound?
A: 1165.7 ± 1.8 kg/m3

Q: And the mass density (371.6 K, 120000 kPa, Bellows volumetry)?
A: 1169.4 ± 1.8 kg/m3

Q: What about the mass density (371.6 K, 130000 kPa, Bellows volumetry) of the same compound?
A: 1173.1 ± 1.8 kg/m3

Q: And the mass density (371.6 K, 140000 kPa, Bellows volumetry)?
A: 1176.4 ± 1.8 kg/m3

Q: What about the mass density (371.6 K, 150000 kPa, Bellows volumetry) of the same compound?
A: 1179.7 ± 1.8 kg/m3

Q: And the mass density (371.6 K, 160000 kPa, Bellows volumetry)?
A: 1183 ± 1.8 kg/m3

Q: And the mass density (371.6 K, 170000 kPa, Bellows volumetry)?
A: 1186.3 ± 1.8 kg/m3

Q: What about the mass density (371.6 K, 180000 kPa, Bellows volumetry) of the same compound?
A: 1189.4 ± 1.8 kg/m3

Q: What about the mass density (371.6 K, 190000 kPa, Bellows volumetry) of the same compound?
A: 1192.5 ± 1.8 kg/m3

Q: What about the mass density (371.6 K, 200000 kPa, Bellows volumetry) of the same compound?
A: 1195.6 ± 1.8 kg/m3

Q: What about the viscosity (373.15 K, 101.33 kPa) of the same compound?
A: 18.37 ± 0.24 mPa·s

Q: And the mass density (373.15 K, 101.33 kPa, Vibrating tube method)?
A: 1114.2 ± 1.4 kg/m3
